Test results as given in patent publication US5952504A, “4-amino-3-acylnaphthyridine derivatives” (Yungjin Pharmaceutical Company, Ltd., priority 1995, dated 1999).
pIC50: −log10 of the molar value. Read-outs that look alike come from different tables or passages of the source. Each block holds one compound with its values, some of them ahead of it.

Experiments:
H^+ /K^+ ATPase = target: T1, H^+ /K^+ ATPase (Oryctolagus cuniculus, UniProt P27112); assay: Inhibition of H^+ /K^+ ATPase (rabbit gastric mucosa vesicles); format: biochemical
T1 construct: from tissue; host or cells: rabbit gastric mucosa, membrane vesicles (differential and Ficoll density gradient centrifugation)
Protocol: 1. Inhibition of H^+ /K^+ ATPase Inhibition of H^+ /K^+ ATPase, a proton carrying enzyme, was measured by following the procedure of Saccomani et al. [Biochim. Biophy. Acta., 465, 311-330 (1977)]. Thus, a homogenate of the gastric mucose membrane of rabbit was used to prepare vesicles containing H^+ /K^+ ATPase by employing differential centrifugation and discontinuous density gradient centrifugation in Ficoll. […] Omeprazole was used as a control. A solution containing 2 mM of magnesium chloride, 40 mM of imidazole buffer (pH 7.4), 10 mM of potassium chloride and […] of ATP was added to the mixture. The resulting mixture was incubated at 37° C. for 15 minutes and the reaction was terminated by adding 1 ml of ice-cold 22% solution of trichloroacetic acid. Enzyme activity was calculated by measuring the separated inorganic phosphate by following the method of Fiske and Subbarow [J. Biol. Chem., 66, 375-440 (1925)].

gastric secretion = assay: Inhibition of gastric secretion (Shay ligation); format: in vivo, male Sprague-Dawley rats; details: 4 hours, pylorus-ligated rats; for Gastric juice Secretion Inhibition (% at 12.5 mg/kg): 12.5 mg/kg into duodenum; for ED50: Rattus norvegicus, into duodenum, read-out: Gastric juice Secretion Inhibition (ED50)
Protocol: 2. Inhibition of Gastric Secretion
Inhibition of gastric secretion was measured by following the procedure of Shay ligation (Gastroenterology, 1954, 26, 903). Thus, male Sprague-Dawleyrats weighing 180-200 g were starved for 24 hours and their pylorus were ligated. Then, the inventive compounds shown in Table 2 or omeprazole as a positive control was administered into duodenum. Four hours later, the stomach was removed, and the acidity and amount of gastric juice were measured. By comparing the measured values with the acidity and amount of the gastric juice of the stomach of the reference group to which no test compound was administered, the inhibition of gastric secretion was calculated.

[1] = tested on: indomethacin-induced lesions; assay: Inhibition of indomethacin-induced lesions; format: in vivo, male Sprague-Dawley rats; details: Rattus norvegicus; oral, before indomethacin 35 mg/kg s.c.; read-out: Anti-ulcer activity (ED50), Indomethacin
Protocol: 3) Inhibition of indomethacin-induced lesions Inhibitory activities of the inventive compounds on the indomethacin-induced lesions were measured by using male Sprague-Dawley rats. Thus, rats were starved for 48 hours and prohibited from being supplied with water for 2 hours, and 35 mg/kg of indomethacin (Sigma Co.) as a causative of gastric lesions was subcutaneously administered. Before indomethacin treatment, the inventive compounds shown in Table 3 or omeprazole as a positive control was orally administered, and the inhibitions of lesions by the action of the test compounds were observed.

ethanol-induced lesions = assay: Inhibition of ethanol-induced lesions; format: in vivo, male Sprague-Dawley rats; details: Rattus norvegicus; oral, 30 min before absolute ethanol (5 ml/kg); read-out: Anti-ulcer activity (ED50), Ethanol
Protocol: 1) Inhibition of ethanol-induced lesions Inhibitory activity of the inventive compound on the ethanol-induced lesions was measured by using male Sprague-Dawley rats weighing 180-200 g. Thus, rats were starved for 24 hours, and the inventive compounds shown in Table 3 or omeprazole as a positive control was orally administered. Thirty minutes later, absolute ethanol (5 ml/kg) was orally administered. 1.5 hours later, the stomach was removed, and the degree of the wound of the stomach was measured.

stress-induced ulcer = assay: Inhibition of stress-induced ulcer; format: in vivo, male Sprague-Dawley rats; details: Rattus norvegicus; oral, water immersion stress; read-out: Anti-ulcer activity (ED50), Stress
Protocol: 4) Inhibition of stress-induced ulcer Inhibitory activity of the inventive compound on the stress-induced ulcer was evaluated by using male Spraque-Dawley rats. Thus, rats were starved for 24 hours prior to carrying out the experiment. Stress is an important factor for causing gastric ulcer, and was applied to rats by immersing them in water. Then, the inventive compounds shown in Table 3 or omeprazole as a control was orally administered, and the inhibitions of ulcer by the action of the test compounds were observed.

mepirizole-induced ulcer = assay: Inhibition of mepirizole-induced ulcer; format: in vivo, male Sprague-Dawley rats; details: Rattus norvegicus; oral, 30 min before mepirizole (250 mg/kg); duodenum; read-out: Anti-ulcer activity (ED50), Mepirizole
Protocol: 2) Inhibition of mepirizole-induced ulcer Inhibitory activity of the inventive compound on the mepirizole-induced ulcer was measured by using male Spraque-Dawley rats weighing 200-230 g. Thus, rats were not starved, and the inventive compounds shown in Table 3 or omeprazole as a positive control was orally administered. Thirty minutes later, mepirizole suspended in 1% CMC (250 mg/kg) was orally administered. […], the duodena were removed. The degree of the ulcer thereof was measured.

ICR mice = assay: Acute toxicity (oral, 14 days); format: in vivo; details: 6 animals
Protocol: (§1) A median lethal dose (LD50) an index of acute toxicity was measured and is Table 4

[2] = Acute toxicity (oral, 14 days); format: in vivo; details: mouse, in vivo, po; for mortality at 336 h: read-out: Lethality (%); for LD50 at 336 h: 14 days
Protocol: as §1

[3] = tested on: acetic acid-induced ulcer; assay: Inhibition of acetic acid-induced ulcer; format: in vivo, male Sprague-Dawley rats; details: oral, 10 days
Protocol: 5) Inhibition of acetic acid-induced ulcer Inhibitory activity of the inventive compound on the acetic acid-induced ulcer was evaluated by using male Sprague-Dawley rats. Thus, rats were starved for 5 hours prior to carrying out the experiment. 20 Microliter of 30% acetic acid was injected into the submucosal layer of the stomach using a microsyringe to induce a circular ulcer on the stomach. […] The percentages of the healing of the ulcer were calculated by comparing them with that of reference group.

[4] = preincubation 30 min, 37° C., pH 7.4

T1 sequence (P27112 2-1035 limits assumed): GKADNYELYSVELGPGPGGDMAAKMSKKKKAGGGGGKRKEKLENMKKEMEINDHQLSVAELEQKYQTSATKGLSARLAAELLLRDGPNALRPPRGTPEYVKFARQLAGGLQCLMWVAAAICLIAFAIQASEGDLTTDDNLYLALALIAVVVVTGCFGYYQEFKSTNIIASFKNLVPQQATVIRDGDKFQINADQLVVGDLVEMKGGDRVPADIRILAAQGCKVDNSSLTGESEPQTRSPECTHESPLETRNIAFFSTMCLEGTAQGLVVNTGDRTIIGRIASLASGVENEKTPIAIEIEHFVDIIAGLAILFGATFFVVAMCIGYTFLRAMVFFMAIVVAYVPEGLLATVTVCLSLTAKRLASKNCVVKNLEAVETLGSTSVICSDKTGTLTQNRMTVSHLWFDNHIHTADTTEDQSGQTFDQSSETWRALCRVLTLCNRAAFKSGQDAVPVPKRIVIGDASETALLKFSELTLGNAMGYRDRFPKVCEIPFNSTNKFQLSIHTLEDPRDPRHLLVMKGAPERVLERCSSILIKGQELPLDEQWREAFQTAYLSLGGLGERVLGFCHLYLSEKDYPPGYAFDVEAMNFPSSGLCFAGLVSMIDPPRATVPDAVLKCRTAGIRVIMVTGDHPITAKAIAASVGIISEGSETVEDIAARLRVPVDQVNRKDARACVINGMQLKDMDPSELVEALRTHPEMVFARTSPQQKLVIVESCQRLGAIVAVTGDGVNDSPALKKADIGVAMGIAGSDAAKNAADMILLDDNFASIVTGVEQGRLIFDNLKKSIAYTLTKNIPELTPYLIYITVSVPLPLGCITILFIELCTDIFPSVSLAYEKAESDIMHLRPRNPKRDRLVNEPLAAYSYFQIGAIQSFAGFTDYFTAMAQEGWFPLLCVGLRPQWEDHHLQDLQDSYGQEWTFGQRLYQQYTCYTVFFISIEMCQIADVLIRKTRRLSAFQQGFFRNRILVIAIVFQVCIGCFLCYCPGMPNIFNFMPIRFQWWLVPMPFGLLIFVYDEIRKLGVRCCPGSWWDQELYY
T1 sequence (P18597 whole entry partner): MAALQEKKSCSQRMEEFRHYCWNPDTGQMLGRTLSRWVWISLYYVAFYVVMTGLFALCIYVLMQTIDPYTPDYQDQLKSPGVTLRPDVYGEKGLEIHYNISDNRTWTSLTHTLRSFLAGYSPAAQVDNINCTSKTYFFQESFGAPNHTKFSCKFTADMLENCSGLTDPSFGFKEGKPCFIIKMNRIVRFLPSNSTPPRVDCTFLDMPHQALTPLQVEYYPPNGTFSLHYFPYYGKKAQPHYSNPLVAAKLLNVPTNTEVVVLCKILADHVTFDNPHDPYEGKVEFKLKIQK

Compound: CCOC(=O)c1cnc2c(OC)nccc2c1Nc1ccc(F)cc1 [Example 11]
- pIC50 (H^+ /K^+ ATPase; [4]): 4.50

Compound: CCCCc1ccc(Nc2c(C(=O)OCC)cnc3c(OC)nccc23)cc1 [Example 13]
- pIC50 (H^+ /K^+ ATPase; [4]): 4.60
- Gastric juice Secretion Inhibition (% at 12.5 mg/kg) (gastric secretion): 42.1%

Compound: CCOC(=O)c1cnc2c(OC)nccc2c1N[C@@H](C)c1ccccc1 [Example 15]
- ED50 [1]: 2.1 mg/kg
- ED50 (ethanol-induced lesions): 12.8 mg/kg
- ED50 (gastric secretion): 30 mg/kg

Compound: CCCC(=O)c1cnc2c(OC)nccc2c1N[C@H](C)c1ccccc1 [Example 21]
- ED50 (stress-induced ulcer): 13 mg/kg
- ED50 (mepirizole-induced ulcer): 64.1 mg/kg
- No. of Death (ICR mice; female, 40 mg/kg oral): 0
- No. of Death (ICR mice; female, 200 mg/kg oral): 0
- No. of Death (ICR mice; female, 1000 mg/kg oral): 1
- No. of Death (ICR mice; female, 5000 mg/kg oral): 6
- No. of Death (ICR mice; male, 40 mg/kg oral): 0
- No. of Death (ICR mice; male, 200 mg/kg oral): 0
- No. of Death (ICR mice; male, 1000 mg/kg oral): 0
- No. of Death (ICR mice; male, 5000 mg/kg oral): 6
- mortality at 336 h ([2]; 40 mg/kg, female, 40 mg/kg oral): 0%
- mortality at 336 h ([2]; 40 mg/kg, male, 40 mg/kg oral): 0%
- mortality at 336 h ([2]; 200 mg/kg, female, 200 mg/kg oral): 0%
- mortality at 336 h ([2]; 200 mg/kg, male, 200 mg/kg oral): 0%
- mortality at 336 h ([2]; 1000 mg/kg, female, 1000 mg/kg oral): 17%
- mortality at 336 h ([2]; 1000 mg/kg, male, 1000 mg/kg oral): 0%
- mortality at 336 h ([2]; 5000 mg/kg, female, 5000 mg/kg oral): 100%
- mortality at 336 h ([2]; 5000 mg/kg, male, 5000 mg/kg oral): 100%
- LD50 at 336 h ([2]; female): 1130 mg/kg
- LD50 at 336 h ([2]; male): 2340 mg/kg
- pIC50 (H^+ /K^+ ATPase; [4]): 4.34
- Acetic acid: Percentage of healing in 30 mg/kg [3]: 22.0%
- ED50 [1]: 2.1 mg/kg
- ED50 (ethanol-induced lesions): 11.2 mg/kg
- ED50 (gastric secretion): 11.7 mg/kg

Compound: CCCC(=O)c1cnc2c(OC)nccc2c1NCCCCc1ccccc1 [Example 29]
- pIC50 (H^+ /K^+ ATPase; [4]): 4.57

Compound: CCCC(=O)c1cnc2c(OC)nccc2c1Nc1ccc2c(c1)CCC2 [Example 31]
- pIC50 (H^+ /K^+ ATPase; [4]): 4.83

Compound: CCCC(=O)c1cnc2c(OC)nccc2c1NC1CCCc2ccccc21 (stereo not drawn) [Example 32]
- pIC50 (H^+ /K^+ ATPase; [4]): 4.12

Compound: CCCC(=O)c1cnc2c(OCC)nccc2c1Nc1ccccc1SC [Example 34]
- pIC50 (H^+ /K^+ ATPase; [4]): 4.63
- ED50 [1]: 4.9 mg/kg
- ED50 (ethanol-induced lesions): 30.6 mg/kg
- ED50 (gastric secretion): 30 mg/kg

Compound: CCCCc1ccc(Nc2c(C(=O)CCC)cnc3c(OCC)nccc23)cc1 [Example 35]
- pIC50 (H^+ /K^+ ATPase; [4]): 4.69

Compound: CCCC(=O)c1cnc2c(OCC)nccc2c1N[C@H](C)c1ccccc1 [Example 37]
- pIC50 (H^+ /K^+ ATPase; [4]): 4.55
- ED50 (gastric secretion): 13.3 mg/kg

Compound: CCCC(=O)c1cnc2c(OCC)nccc2c1NCCCCc1ccccc1 [Example 41]
- pIC50 (H^+ /K^+ ATPase; [4]): 4.90

Compound: CCOC(=O)c1cnc2c(N3CCOCC3)nccc2c1Nc1ccccc1OC [Example 49]
- Gastric juice Secretion Inhibition (% at 12.5 mg/kg) (gastric secretion): 35.8%

More lines, main results first:

- pIC50 (H^+ /K^+ ATPase; [4]): 4.83
Compound: CCCC(=O)c1cnc2c(OCC)nccc2c1NC1CCCc2ccccc21 (stereo not drawn) [Example 42]

- pIC50 (H^+ /K^+ ATPase; [4]): 4.74
Compound: CCCC(=O)c1cnc2c(OC(C)C)nccc2c1Nc1ccccc1C [Example 43, 3-Butyryl-8-isopropoxy-4-(2-methylphenylamino)-1,7-naphthyridine]

- pIC50 (H^+ /K^+ ATPase; [4]): 4.94
Compound: CCCC(=O)c1cnc2c(OC(C)C)nccc2c1Nc1ccccc1SC [Example 44]

- pIC50 (H^+ /K^+ ATPase; [4]): 4.41
Compound: CCCC(=O)c1cnc2c(OC(C)C)nccc2c1Nc1ccccc1C(F)(F)F [Example 45]

- pIC50 (H^+ /K^+ ATPase; [4]): 4.77
Compound: CCOC(=O)c1cnc2c(N3CCOCC3)nccc2c1Nc1cccc(C(F)(F)F)c1 [Example 55]

- pIC50 (H^+ /K^+ ATPase; control): 4.24
Compound: COc1ccc2[nH]c([S+]([O-])Cc3ncc(C)c(OC)c3C)nc2c1 (stereo not drawn) [Omeprazole, reference compound]
- ED50 (stress-induced ulcer): 4.4 mg/kg
- ED50 (mepirizole-induced ulcer): 2.8 mg/kg
- Acetic acid: Percentage of healing in 30 mg/kg [3]: 27.1%
- ED50 [1]: 1.2 mg/kg
- ED50 (ethanol-induced lesions): 17.5 mg/kg
